≈ marks a conversion by molar mass, not a printed value.
Assays:
Type in all cases: cell-based
[1] = tested on: Enterobacter cloacae 11699; test: MIC, solid dilution method; details: E. cl 11699, CSE clinical isolate, MHA agar, 37° C., 16-20 hours, read-out: MIC
Procedure: (§1) The above-mentioned glycerol-preserved strains were taken out from the −80° C. refrigerator, streaked and inoculated on MHA plates, labeled, and cultured overnight in a 37° C. incubator.
(§2) The inoculum was prepared directly from bacterial suspension, and several recovered colonies were picked and directly prepared into a bacterial suspension with a turbidity of No. 0.5 McFarland units in normal saline, and a 10-fold dilution was made during inoculation.
(§3) Sterile blank petri dishes were taken, and marked with each FL drug/concentration according to 2-fold dilution, and 10 concentrations of each drug starting from 8 μg/mL were tested.
(§4) 4 bacterial control petri dishes without drug were prepared at the same time as a control.
(§5) The positioning needle and the inoculation needle were installed according to the order of placement of the colony on the inoculation plate. After inoculation, a bacterial solution circle was formed on the petri dish. After the bacterial solution was absorbed by the agar, the petri dish was placed in an incubator at 37° C. for overnight incubation (16-20 hours), and then taken out.

[2] = tested on: Enterobacter cloacae 11090; test: MIC, solid dilution method; details: E. cl 11090, CRE clinical isolate, MHA agar, 37° C., 16-20 hours, read-out: MIC
Procedure: as §1, §2, §3, §4, §5

[3] = tested on: Enterobacter cloacae 14653; test: MIC, solid dilution method; details: E. cl 14653, CRE clinical isolate, MHA agar, 37° C., 16-20 hours, read-out: MIC
Procedure: as §1, §2, §3, §4, §5

[4] = tested on: Enterobacter aerogenes 8193; test: MIC, solid dilution method; details: Klebsiella aerogenes; E. ae 8193, CRE clinical isolate; MHA agar, 37° C., 16-20 hours; read-out: MIC
Procedure: CRE Enterobacter aerogenes 8193, a total of 1 strain;
as §1, §2
(§6) 6 bottles of MHA culture medium 500 mL/bottle were prepared, and the pH was adjusted to 7.2-7.4, sterilized at 121° C. for 15 min, and the medium was placed in a 55° C. water bath to keep warm.
as §3
(§7) […]; 20 mL was aspirated and added to a petri dish consistent with the mark, and then 20 mL of MHA culture medium was added to the rest of the drug-containing culture medium, mixed evenly, that is, the 2-fold diluted drug-containing culture medium; 20 mL was aspirated and added to the petri dish consistent with the mark, and then diluted to the 10th concentration and the […] respectively by repeating the above-mentioned steps, and then poured into the petri dish.
as §4, §5
(§8) The minimum inhibitory concentrations of the compounds against the CRE and CSE strains were determined by the solid dilution method, and the results are shown in Tables 3 and 4.

Escherichia coli 13897 = test: MIC, solid dilution method; details: E. coli 13897, CRE clinical isolate, MHA agar, 37° C., 16-20 hours, read-out: MIC
Procedure: as §1, §2, §6, §3, §7, §4, §5, §8

E. coli 11256 = test: MIC, solid dilution method; details: Escherichia coli; E. coli 11256; MHA agar, 37° C., 16-20 hours; read-out: MIC
Procedure: as §1, §2, §6, §3, §7, §4, §5, §8

Escherichia coli 14828 = test: MIC, solid dilution method; details: E. coli 14828, CRE clinical isolate, MHA agar, 37° C., 16-20 hours, read-out: MIC
Procedure: as §1, §2, §6, §3, §7, §4, §5, §8

Klebsiella oxytoca 14151 = test: MIC, solid dilution method; details: K. ox 14151, CRE clinical isolate, MHA agar, 37° C., 16-20 hours, read-out: MIC
Procedure: as §1, §2, §6, §3, §7, §4, §5, §8

Klebsiella oxytoca 6777 = test: MIC, solid dilution method; details: K. ox 6777, CRE clinical isolate, MHA agar, 37° C., 16-20 hours, read-out: MIC
Procedure: as §1, §2, §6, §3, §7, §4, §5, §8

Escherichia coli 11119 = test: MIC, solid dilution method; details: E. coli 11119, CRE clinical isolate, MHA agar, 37° C., 16-20 hours, read-out: MIC
Procedure: as §1, §2, §6, §3, §7, §4, §5, §8

Klebsiella oxytoca 12391 = test: MIC, solid dilution method; details: K. ox 12391, CRE clinical isolate, MHA agar, 37° C., 16-20 hours, read-out: MIC
Procedure: as §1, §2, §6, §3, §7, §4, §5, §8

Klebsiella oxytoca 14153 = test: MIC, solid dilution method; details: K. ox 14153, CRE clinical isolate, MHA agar, 37° C., 16-20 hours, read-out: MIC
Procedure: as §1, §2, §6, §3, §7, §4, §5, §8

[5] = tested on: Acinetobacter baumannii 8476; test: MIC, solid dilution method; details: A.B 8476, CRE clinical isolate, MHA agar, 37° C., 16-20 hours, read-out: MIC
Procedure: (§9) CRE Acinetobacter baumannii 8476, 6383, a total of 2 strains; CRE Serratia marcescens 14541, a total of 1 strain; all collected in the Department of Infectious Diseases, West China Hospital, Chengdu, Sichuan Province, and kept in our laboratory.
as §1, §2, §6, §3, §7, §4, §5, §8

[6] = tested on: Serratia marcescens 14541; test: MIC, solid dilution method; details: Sma 14541, CRE clinical isolate, MHA agar, 37° C., 16-20 hours, read-out: MIC
Procedure: as §9, §1, §2, §6, §3, §7, §4, §5, §8

[7] = tested on: Acinetobacter baumannii 6383; test: MIC, solid dilution method; details: A.B 6383, CRE clinical isolate, MHA agar, 37° C., 16-20 hours, read-out: MIC
Procedure: as §9, §1, §2, §6, §3, §7, §4, §5, §8

[8] = tested on: Klebsiella pneumoniae 12559; test: MIC, solid dilution method; details: K.p 12559, CRE clinical isolate, MHA agar, 37° C., 16-20 hours, read-out: MIC
Procedure: (2) Clinical isolated strains: CRE Klebsiella pneumoniae 5846, 11544, 12559, 13249 and CSE Klebsiella pneumoniae 8733, a total of 5 strains;
as §1, §2, §6, §3, §7, §4, §5, §8

[9] = tested on: Citrobacter freundii 7646; test: MIC, solid dilution method; details: C.f 7646, CSE clinical isolate, MHA agar, 37° C., 16-20 hours, read-out: MIC
Procedure: (§10) CRE Citrobacter freundii 9434, 9484 and CSE Citrobacter freundii 7646, a total of 3 strains;
as §1, §2, §6, §3, §7, §4, §5, §8

[10] = tested on: Citrobacter freundii 9484; test: MIC, solid dilution method; details: C.f 9484, CRE clinical isolate, MHA agar, 37° C., 16-20 hours, read-out: MIC
Procedure: as §10, §1, §2, §6, §3, §7, §4, §5, §8

[11] = tested on: Citrobacter freundii 9434; test: MIC, solid dilution method; details: C.f 9434, CRE clinical isolate, MHA agar, 37° C., 16-20 hours, read-out: MIC
Procedure: as §10, §1, §2, §6, §3, §7, §4, §5, §8

16 clinical CRE strains = test: MIC50, MIC90 and MIC range against 16 clinical CRE strains; details: 16 clinical CRE strains; for MIC50: read-out: MIC50; for MIC90: read-out: MIC90
Procedure: as §1, §2, §6, §3, §7, §4, §5, §8

Row | MIC [1] | MIC [2] | MIC [3] | MIC (Escherichia coli 13897) | MIC (E. coli 11256) | MIC (Escherichia coli 14828) | MIC (Klebsiella oxytoca 14151) | MIC (Klebsiella oxytoca 6777) | MIC (Escherichia coli 11119) | MIC (Klebsiella oxytoca 12391) | MIC (Klebsiella oxytoca 14153) | MIC [5] | MIC [6] | MIC [7] | MIC [8] | MIC [9] | MIC [10] | MIC [11] | MIC50 (16 clinical CRE strains) | Compound | MIC [4] | other results
1 | 0.125 µg/mL (≈ 0.182 µM) | 2 µg/mL (≈ 2.92 µM) | 1 µg/mL (≈ 1.46 µM) | 0.25 µg/mL (≈ 0.365 µM) | 0.125 µg/mL (≈ 0.182 µM) | 0.5 µg/mL (≈ 0.729 µM) | 1 µg/mL (≈ 1.46 µM) | 1 µg/mL (≈ 1.46 µM) | > 8 µg/mL | 1 µg/mL (≈ 1.46 µM) | 1 µg/mL (≈ 1.46 µM) | 8 µg/mL (≈ 11.7 µM) | > 8 µg/mL | > 8 µg/mL | 0.5 µg/mL (≈ 0.729 µM) | 0.5 µg/mL (≈ 0.729 µM) | 0.125 µg/mL (≈ 0.182 µM) | 0.5 µg/mL (≈ 0.729 µM) | 2 µg/mL (≈ 2.92 µM) | CC1(C)[C@H](NC(=O)/C(=N\O[C@@H](COc2ccc3c(c2)CN(C(=N)NOCCN)C3)C(=O)O)c2csc(N)n2)C(=O)N1OS(=O)(=O)O [Compound 43] | 2 µg/mL (≈ 2.92 µM) | MIC90 (16 clinical CRE strains): > 8 µg/mL
2 | 0.03 µg/mL (≈ 0.0448 µM) | 0.5 µg/mL (≈ 0.747 µM) | 0.25 µg/mL (≈ 0.373 µM) | 0.125 µg/mL (≈ 0.187 µM) | 0.03 µg/mL (≈ 0.0448 µM) | 0.125 µg/mL (≈ 0.187 µM) | 0.25 µg/mL (≈ 0.373 µM) | 0.25 µg/mL (≈ 0.373 µM) | 4 µg/mL (≈ 5.97 µM) | 0.25 µg/mL (≈ 0.373 µM) | 0.25 µg/mL (≈ 0.373 µM) | 1 µg/mL (≈ 1.49 µM) | > 8 µg/mL | 2 µg/mL (≈ 2.99 µM) | 0.125 µg/mL (≈ 0.187 µM) | 0.125 µg/mL (≈ 0.187 µM) | 0.03 µg/mL (≈ 0.0448 µM) | 0.125 µg/mL (≈ 0.187 µM) | 0.5 µg/mL (≈ 0.747 µM) | CC1(C)[C@H](NC(=O)/C(=N\O[C@@H](COc2ccc3c(c2)CN(C(=N)NCCN)C3)C(=O)O)c2csc(N)n2)C(=O)N1OS(=O)(=O)O [Compound 44] | 0.5 µg/mL (≈ 0.747 µM) | MIC90 (16 clinical CRE strains): 8 µg/mL (≈ 11.9 µM)
3 | 0.125 µg/mL (≈ 0.158 µM) | 1 µg/mL (≈ 1.26 µM) | 0.5 µg/mL (≈ 0.631 µM) | 0.125 µg/mL (≈ 0.158 µM) | 0.03 µg/mL (≈ 0.0378 µM) | 0.125 µg/mL (≈ 0.158 µM) | 0.25 µg/mL (≈ 0.315 µM) | 0.25 µg/mL (≈ 0.315 µM) | 4 µg/mL (≈ 5.04 µM) | 0.25 µg/mL (≈ 0.315 µM) | 0.25 µg/mL (≈ 0.315 µM) | 4 µg/mL (≈ 5.04 µM) | > 8 µg/mL | 4 µg/mL (≈ 5.04 µM) | 0.25 µg/mL (≈ 0.315 µM) | 0.125 µg/mL (≈ 0.158 µM) | 0.06 µg/mL (≈ 0.0757 µM) | 0.125 µg/mL (≈ 0.158 µM) | 1 µg/mL (≈ 1.26 µM) | CC1(C)[C@H](NC(=O)/C(=N\O[C@@H](COc2ccc3c(c2)CN(/C(=N\[C@@H]2CCCNC2)N[C@@H]2CCCNC2)C3)C(=O)O)c2csc(N)n2)C(=O)N1OS(=O)(=O)O [Compound 46] | 1 µg/mL (≈ 1.26 µM) | MIC90 (16 clinical CRE strains): 8 µg/mL (≈ 10.1 µM)
